One test has as its system EFM-19. Nature of the test: cells. Format: functional, cell-based. The following applies: Homo sapiens.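 Further: growth inhibition of human EFM-19 cells, measured in a cell viability assay.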
Description: SANGER: Inhibition of human EFM-19 cell growth in a cell viability assay.
With `CO[C@@H]1[C@H](N(C)C(=O)c2ccccc2)C[C@H]2O[C@]1(C)n1c3ccccc3c3c4c(c5c6ccccc6n2c5c31)C(=O)NC4` [MIDOSTAURIN], it took 212 nM to reach half-maximal inhibition (IC50).

The test system of another test is 8305C. Nature of the test: cells. Format: functional, cell-based. The following applies: Homo sapiens.
Description: SANGER: Inhibition of human 8305C cell growth in a cell viability assay.
As to `CO[C@@H]1[C@H](N(C)C(=O)c2ccccc2)C[C@H]2O[C@]1(C)n1c3ccccc3c3c4c(c5c6ccccc6n2c5c31)C(=O)NC4` [MIDOSTAURIN], the IC50 (usually the concentration that inhibits the measured activity by half) is > 512 nM.

For a further test, the system named is NCCIT. Nature of the test: SANGER: Inhibition of human NCCIT cell growth in a cell viability assay. Format: functional, cell-based. The following applies: Homo sapiens, NCCIT.
`CO[C@@H]1[C@H](N(C)C(=O)c2ccccc2)C[C@H]2O[C@]1(C)n1c3ccccc3c3c4c(c5c6ccccc6n2c5c31)C(=O)NC4` [MIDOSTAURIN]: the IC50 is > 512 nM.

A further test concerns NCI-H460. Nature of the test: cells. Format: functional, cell-based. Conditions: Homo sapiens.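 Further: cell viability assay scoring growth inhibition of human NCI-H460 cells.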
Description: SANGER: Inhibition of human NCI-H460 cell growth in a cell viability assay.
As to `CO[C@@H]1[C@H](N(C)C(=O)c2ccccc2)C[C@H]2O[C@]1(C)n1c3ccccc3c3c4c(c5c6ccccc6n2c5c31)C(=O)NC4` [MIDOSTAURIN], the IC50 was > 512 nM.

The test system of a further test is 5637. Nature of the test: cells. Conditions: Homo sapiens. Format: functional, cell-based.
Description: SANGER: Inhibition of human 5637 cell growth in a cell viability assay.
For `CO[C@@H]1[C@H](N(C)C(=O)c2ccccc2)C[C@H]2O[C@]1(C)n1c3ccccc3c3c4c(c5c6ccccc6n2c5c31)C(=O)NC4` [MIDOSTAURIN], the IC50 is > 512 nM.

A further test deals with MKN-28. Nature of the test: cells. Format: functional, cell-based. Conditions: Homo sapiens.
Description: SANGER: Inhibition of human MKN28 cell growth in a cell viability assay.
`CO[C@@H]1[C@H](N(C)C(=O)c2ccccc2)C[C@H]2O[C@]1(C)n1c3ccccc3c3c4c(c5c6ccccc6n2c5c31)C(=O)NC4` [MIDOSTAURIN]: the IC50 was > 512 nM.

Another test deals with 23132-87. Nature of the test: cells. The following applies: Homo sapiens. Format: functional, cell-based.
Description: SANGER: Inhibition of human 23132-87 cell growth in a cell viability assay.
As to `CO[C@@H]1[C@H](N(C)C(=O)c2ccccc2)C[C@H]2O[C@]1(C)n1c3ccccc3c3c4c(c5c6ccccc6n2c5c31)C(=O)NC4` [MIDOSTAURIN], the IC50 is > 512 nM.

In another test the test system is UMC-11. Nature of the test: cells. Format: functional, cell-based. Conditions: Homo sapiens.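 Further: growth inhibition of UMC-11 cells, read out with a cell viability assay.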
Description: SANGER: Inhibition of human UMC-11 cell growth in a cell viability assay.
Take `CO[C@@H]1[C@H](N(C)C(=O)c2ccccc2)C[C@H]2O[C@]1(C)n1c3ccccc3c3c4c(c5c6ccccc6n2c5c31)C(=O)NC4` [MIDOSTAURIN]: the IC50 was > 512 nM.

For a further test, the system named is HSC-3. Nature of the test: cells. Format: functional, cell-based. Conditions: Homo sapiens.
Description: SANGER: Inhibition of human HSC-3 cell growth in a cell viability assay.
With `CO[C@@H]1[C@H](N(C)C(=O)c2ccccc2)C[C@H]2O[C@]1(C)n1c3ccccc3c3c4c(c5c6ccccc6n2c5c31)C(=O)NC4` [MIDOSTAURIN], the IC50 was > 512 nM.

Another test relates to EGI-1. Nature of the test: cells. Format: functional, cell-based. The following applies: Homo sapiens.
Description: SANGER: Inhibition of human EGI-1 cell growth in a cell viability assay.
On to `CO[C@@H]1[C@H](N(C)C(=O)c2ccccc2)C[C@H]2O[C@]1(C)n1c3ccccc3c3c4c(c5c6ccccc6n2c5c31)C(=O)NC4` [MIDOSTAURIN], for which the IC50 was > 512 nM.

The next test concerns SF-295. Nature of the test: cells. Format: functional, cell-based. Conditions: Homo sapiens.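 Further: growth inhibition of SF-295 cells, read out with a cell viability assay.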
Description: SANGER: Inhibition of human SF295 cell growth in a cell viability assay.
Compound `CO[C@@H]1[C@H](N(C)C(=O)c2ccccc2)C[C@H]2O[C@]1(C)n1c3ccccc3c3c4c(c5c6ccccc6n2c5c31)C(=O)NC4` [MIDOSTAURIN] displayed an IC50 of 273 nM.

(Values after ChEMBL document CHEMBL1201861, “Genomics of Drug Sensitity in Cancer screening data, Wellcome Trust Sanger Institute”.)
